The values below come from PMC2865783, “Synthesis, Antiinflammatory and HIV-1 Integrase Inhibitory Activities of 1,2-Bis[5-thiazolyl]ethane-1,2-dione Derivatives” (Indian Journal of Pharmaceutical Sciences, 2009).

The subject of series [1] is carrageenan-induced rat-paw edema. In words: carrageenan-induced rat paw edema method. The class given is in vivo. Conditions: for % PROTECTION: Table 3, all compounds screened at 100 mg/kg body weight; for antiinflammatory activity (in words): carrageenan-induced rat paw edema, 100 mg/kg. On the procedure:
(§1) Phenyl isothiocyanate was procured from Lancaster. Methyl isothiocyanate was gift sample from Hitesh Chemicals and Drugs Pvt Ltd, Hyderabad, India. Benzoylisothiocyanate, methoxycarbonyl isothiocyanate, ethoxy carbonyl isothiocyanate, N,N-diethyl actamidine, N,N-diethyl benzamidine, N,N-diethylphenyl acetamidine and 1,4-dibromo butane 2,3-dione were prepared in our lab following the reported procedures. Carrageenin was procured from Spectrochem India limited. HIV-1 integrase assay was done at Department of Pharmaceutical Sciences, School of Pharmacy, University of Southern California, Los Angeles, USA[18]. The reported protocol was followed for carrageenin-induced rat paw edema method[19] for evaluation of antiinflammatory activity. All compounds were screened in a group of 6 animals at dose of 100 mg/kg body weight of the animal. The experimental protocol was approved by the institutional animal ethics committee, constituted as per CPCSEA, Government of India.

The next series addresses T1, HIV-1 integrase (Human immunodeficiency virus type 1 group M subtype B, UniProt P12497).
T1 construct: […]; AS MEASURED IN AN EXT[…]-1 INTEGRASE ASSAY
The series is described as follows: extracellular HIV-1 integrase assay (3'-processing and strand transfer). The class given is biochemical.
From the text: Integrase (IN) has emerged as an attractive target, because it is necessary for stable infection and homologous enzymes are lacking in the human host[11]. The function of IN is to catalyze integration of proviral DNA, resulting from the reverse transcription of viral RNA, into the host genome. This is achieved in a stepwise fashion by endonucleolytic processing of proviral DNA within a cytoplasmic preintegration complex (termed 3' P-processing or “3'-P”), followed by translocation of the complex into the nuclear compartment where integration of 3'-processed proviral DNA into host DNA occurs in a “strand transfer” (ST) reaction. […] (fig. 1B)[1112]. The presence of diketo pharmacophore in the synthesized compounds made us to screen these compounds in a HIV-1 integrase inhibitory assay.
as §1

Another series addresses T2, cPLA2 (Homo sapiens, UniProt P47712).
T2 sequence (P47712 1-749): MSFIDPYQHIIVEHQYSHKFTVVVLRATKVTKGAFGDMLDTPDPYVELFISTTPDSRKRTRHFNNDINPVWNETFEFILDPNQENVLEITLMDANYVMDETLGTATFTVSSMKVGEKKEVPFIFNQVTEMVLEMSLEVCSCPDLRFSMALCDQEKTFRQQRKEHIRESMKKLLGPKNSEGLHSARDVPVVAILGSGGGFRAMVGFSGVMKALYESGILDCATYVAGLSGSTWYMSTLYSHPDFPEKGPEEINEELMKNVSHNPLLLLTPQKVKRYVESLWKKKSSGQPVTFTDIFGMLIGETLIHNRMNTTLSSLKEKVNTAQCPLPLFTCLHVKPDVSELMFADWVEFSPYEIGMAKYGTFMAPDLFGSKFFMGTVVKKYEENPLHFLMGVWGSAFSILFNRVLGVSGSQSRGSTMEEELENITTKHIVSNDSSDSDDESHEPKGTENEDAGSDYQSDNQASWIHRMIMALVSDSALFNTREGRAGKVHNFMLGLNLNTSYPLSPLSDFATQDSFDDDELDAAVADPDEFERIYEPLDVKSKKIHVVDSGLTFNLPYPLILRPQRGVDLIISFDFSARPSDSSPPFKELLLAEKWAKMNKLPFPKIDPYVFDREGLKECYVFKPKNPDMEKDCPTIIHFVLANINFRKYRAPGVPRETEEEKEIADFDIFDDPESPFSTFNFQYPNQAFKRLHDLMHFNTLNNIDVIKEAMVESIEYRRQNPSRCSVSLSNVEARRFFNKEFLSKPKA
In words: cPLA2 inhibition. The class given is biochemical.

The test system of series [2] is TNF-α release from human peripheral blood mononuclear cells. The series is described as follows: TNF-α release from human peripheral blood mononuclear cells. The class given is cell-based.
[3] abbreviates: 100 mg/kg b.w, rat paw edema, group of 6 animals, read-out: % PROTECTION Dose 100 mg/kg b.w.
Setting [4] is: 3'-processing step, read-out: 3'P inhibitory potency.
[5] abbreviates: strand transfer step, read-out: ST inhibitory potency.
The mark [6] stands for this setting: Rattus norvegicus, 100 mg/kg body weight, read-out: protection in the carrageenan rat paw model.
[7] abbreviates: rat paw edema, group of 6 animals.

Where two headings read alike, the source gives them in different places.

Turning to `Cc1nc(Nc2ccc(Cl)cc2)sc1C(=O)C(=O)c1sc(Nc2ccc(Cl)cc2)nc1C` [G-3], in series [1] (setting [3]), the inhibition in vivo at 100 mg/kg was 73 ± 0.3%. Further, the results for the IC50 on HIV-1 integrase (setting [4]) and on HIV-1 integrase (setting [5]) were 132 µM and 397 µM, respectively.
What is called melting point is the temperature, or range, at which the solid turns liquid. In turn, `O=C(Nc1nc(-c2ccccc2)c(C(=O)C(=O)c2sc(NC(=O)c3ccccc3)nc2-c2ccccc2)s1)c1ccccc1` [G-6] had a melting point of 234 to 236 °C. The inhibition in vivo at 100 mg/kg in series [1] (setting [3]) turned out to be 74 ± 0.5%. Also, the inhibition in vivo at 100 mg/kg in series [1] (setting [6]) is over 50%. The IC50 on HIV-1 integrase (setting [4]) was over 500 µM. Further, the IC50 on HIV-1 integrase (setting [5]) is 277 µM. In addition, on cPLA2, the “cPLA2 inhibition (in words)” value is “weakly inhibited”. For the same molecule, the “effect on TNF-α release” value in series [2] is “did not have any effect”.
On to `CCOC(=O)Nc1nc(Cc2ccccc2)c(C(=O)C(=O)c2sc(NC(=O)OCC)nc2Cc2ccccc2)s1` [G-14], for which the inhibition in vivo at 100 mg/kg in series [1] (setting [3]) is 38 ± 2%.
With `CCN1CCN(c2nc(-c3ccccc3)c(C(=O)C(=O)c3sc(N4CCN(CC)CC4)nc3-c3ccccc3)s2)CC1` [G-19], the inhibition in vivo at 100 mg/kg in series [1] (setting [6]) is over 50%. Further, the “% PROTECTION” value in series [1] (setting [7]) was found to be 72±0.5%. For the same molecule, the “effect on TNF-α release” value in series [2] is “did not have any effect”.
On to `CN1CCN(c2nc(-c3ccccc3)c(C(=O)C(=O)c3sc(N4CCN(C)CC4)nc3-c3ccccc3)s2)CC1` [G-18], for which the inhibition in vivo at 100 mg/kg in series [1] (setting [6]) is over 50%. In addition, in series [1] (setting [7]), the “% PROTECTION” value came out at 60±0.5%.
For `COC(=O)Nc1nc(-c2ccccc2)c(C(=O)C(=O)c2sc(NC(=O)OC)nc2-c2ccccc2)s1` [G-9], in series [1] (setting [3]), the inhibition in vivo at 100 mg/kg turned out to be 26 ± 3%.
Take `CNc1nc(C)c(C(=O)C(=O)c2sc(NC)nc2C)s1` [G-1]: in series [1] (setting [3]), the inhibition in vivo at 100 mg/kg was found to be 14 ± 7%.
Consider `O=C(C(=O)c1sc(Nc2ccc(Cl)cc2)nc1Cc1ccccc1)c1sc(Nc2ccc(Cl)cc2)nc1Cc1ccccc1` [G-12], for which the inhibition in vivo at 100 mg/kg in series [1] (setting [3]) is 72 ± 1%; in series [1] (setting [6]) it was over 50%. In series [1], the “antiinflammatory activity (in words)” value is “good antiinflammatory activity”.
Consider `O=C(C(=O)c1sc(Nc2ccccc2)nc1Cc1ccccc1)c1sc(Nc2ccccc2)nc1Cc1ccccc1` [G-11], for which the inhibition in vivo at 100 mg/kg in series [1] (setting [3]) came to 23 ± 2%.
As to `O=C(Nc1nc(Cc2ccccc2)c(C(=O)C(=O)c2sc(NC(=O)c3ccccc3)nc2Cc2ccccc2)s1)c1ccccc1` [G-15], in series [1] (setting [3]), the inhibition in vivo at 100 mg/kg is 47 ± 2.3%.
As to `O=C(C(=O)c1sc(N2CCN(c3ccccc3)CC2)nc1-c1ccccc1)c1sc(N2CCN(c3ccccc3)CC2)nc1-c1ccccc1` [G-20], the inhibition in vivo at 100 mg/kg in series [1] (setting [6]) is over 50%. Further, the “% PROTECTION” value in series [1] (setting [7]) stood at 55±4%. Also, the IC50 at HIV-1 integrase (setting [4]) was 122 µM; at HIV-1 integrase (setting [5]), 87 µM.
For the molecule `COC(=O)Nc1nc(Cc2ccccc2)c(C(=O)C(=O)c2sc(NC(=O)OC)nc2Cc2ccccc2)s1` [G-13], the inhibition in vivo at 100 mg/kg in series [1] (setting [3]) came out at 35 ± 2.5%.
The same measure, in the same setting: in the case of `COC(=O)Nc1nc(C)c(C(=O)C(=O)c2sc(NC(=O)OC)nc2C)s1` [G-4] it was 40 ± 2%; in that of `CCOC(=O)Nc1nc(C)c(C(=O)C(=O)c2sc(NC(=O)OCC)nc2C)s1` [G-5], 33 ± 0.9%.
On to `O=C(C(=O)c1sc(Nc2ccc(Cl)cc2)nc1-c1ccccc1)c1sc(Nc2ccc(Cl)cc2)nc1-c1ccccc1` [G-8], for which the inhibition in vivo at 100 mg/kg in series [1] (setting [3]) was 66 ± 1%; in series [1] (setting [6]) it was over 50%.
For `O=C(C(=O)c1sc(Nc2ccccc2)nc1-c1ccccc1)c1sc(Nc2ccccc2)nc1-c1ccccc1` [G-7], the inhibition in vivo at 100 mg/kg in series [1] (setting [3]) was 70 ± 0.7%; in series [1] (setting [6]) it was over 50%. For the same molecule, the “antiinflammatory activity (in words)” value in series [1] is listed as “good antiinflammatory activity”.
For `Cc1nc(Nc2ccccc2)sc1C(=O)C(=O)c1sc(Nc2ccccc2)nc1C` [G-2], in series [1] (setting [3]), the inhibition in vivo at 100 mg/kg was 23 ± 8%.
Take `O=C(C(=O)c1sc(N2CCN(Cc3ccccc3)CC2)nc1-c1ccccc1)c1sc(N2CCN(Cc3ccccc3)CC2)nc1-c1ccccc1` [G-21]: the inhibition in vivo at 100 mg/kg in series [1] (setting [6]) was over 50%. Also, the “% PROTECTION” value in series [1] (setting [7]) came to 85±0.3%.
For `O=C(C(=O)c1sc(N2CCOCC2)nc1-c1ccccc1)c1sc(N2CCOCC2)nc1-c1ccccc1` [G-17], in series [1] (setting [6]), the inhibition in vivo at 100 mg/kg is over 50%. For the same molecule, the “% PROTECTION” value in series [1] (setting [7]) came out at 81±0.5%. The IC50 at HIV-1 integrase (setting [4]) is over 500 µM; on HIV-1 integrase (setting [5]) it was 109 µM. For the same molecule, in series [2], the “effect on TNF-α release” value was “did not have any effect”.
In the case of `CCOC(=O)Nc1nc(-c2ccccc2)c(C(=O)C(=O)c2sc(NC(=O)OCC)nc2-c2ccccc2)s1` [G-10], the inhibition in vivo at 100 mg/kg in series [1] (setting [3]) stood at 34 ± 4%.
Take `O=C(C(=O)c1sc(N2CCCCC2)nc1-c1ccccc1)c1sc(N2CCCCC2)nc1-c1ccccc1` [G-16]: the inhibition in vivo at 100 mg/kg in series [1] (setting [6]) was over 50%. In addition, the “% PROTECTION” value in series [1] (setting [7]) came to 65±0.8%.
